Test results as given in patent publication US20100261706A1, “SUBSTITUTED TETRACYCLIC 1H-INDENO [1,2-B]PYRIDINE-2(5H)-ONE ANALOGS THEREOF AND USES THEREOF” (INOTEK PHARMACEUTICALS CORPORATION, priority 2008, published 2010).
Counter-ions that a name gives are not always drawn.

Test system: diabetic rats exhibiting contrast-induced nephropathy
Test: Contrast-induced nephropathy (CIN) model in streptozotocin-diabetic rats, contrast agent iomeprol
Type: in vivo, Male Wistar rats
Protocol: Effect of Tetracyclic 1H-indeno[1,2-b]pyridine-2(5H)-one analogs on the prophylaxis of contrast induced nephropathy
Male Wistar rats (150-200 g; Harlan Nossanr) were housed in a controlled environment and provided with standard rodent chow and water.
After 12 h of fasting, the animals received a single 60 mg/kg intravenous (i.v.) injection of streptozotocin (Sigma, St. Louis, Mo.) in 10 mM sodium citrate buffer, pH 4.5 (see figure showing CIN model). Control non-diabetic animals were fasted and received citrate buffer alone. After 24 h, animals with blood glucose levels greater than 250 mg/dl were considered diabetic. All experiments were performed 10 days following the induction of diabetes. The diabetic state was evaluated daily by determination of the blood glucose levels. Upon the induction of the diabetic state the animals were presenting with a major risk factor pre-disposing the animals to CIN after the administration of contrast media.
10 days following the induction of diabetes the rats were anesthetized with 90 mg/kg ketamine i.m. and 10 mg/kg xylazine i.m. and were treated with the contrast agent iomeprol (10 mL/kg injected via the lateral tail vein) or with 0.9% normal saline. The contrast agent used was the low osmolar non-ionic monomer iomeprol (lomeron, 400 mgI mL−1; Bracco SpA, Milan, Italy) with an osmolality of 726±34 mosmol/kg H2O.
Upon completion of surgical procedures, the animals were randomly allocated to different groups.
At the indicated time point blood samples were collected via the lateral tail vein into S1/3 tubes containing serum gel. The samples were centrifuged (6000 r.p.m. for 3 min) to separate plasma. All plasma samples were analyzed for biochemical parameters within 24 hours after collection. Plasma urea, plasma and urine concentrations of creatinine were measured as indicators of impaired glomerular function. Plasma concentrations of NGAL (neutrophil gelatinase associated lipocalin) levels and urine αGST (alpha glutathione S-transferase)and NGAL levels were evaluated.
At postmortem, a […] section of kidney was removed and placed in formalin and processed through to wax. […] sections were cut and stained with hematoxylin and eosin. Histologic assessment of outer medulla damage was examined by an experienced morphologist, who was not aware of the sample identity. The criteria for injury/necrosis were the following: 0=normal histology; 1=minor edema, minor cell swelling; 2=haemorrhage, moderate edema, moderate cells vacuolization and swelling; 3=moderate haemorrhage, moderate edema, moderate cells vacuolization, swelling and chromatin alteration; 4=severe edema, severe cells vacuolization, swelling and chromatin alteration, presence of necrosis spot; 5=severe edema, severe cells vacuolization, swelling and chromatin alteration, severe necrosis.

With O=c1[nH]c2c(c3c1CCCC3)Cc1c(CN3CC[C@H](F)C3)cccc1-2 [Example 17, (S)-10-((3-fluoropyrrolidin-1-yl)methyl)-3,4,6,11-tetrahydro-1H-indeno[1,2-c]isoquinolin-5(2H)-one mesylate] the kidney histological scores (outer medulla damage score 0-5, FIG. 4) was “reduced”, the “level of plasma creatinine” value (relative to contrast agent alone, FIG. 1) was “reduces” and the “level of plasma NGAL” value (relative to contrast agent alone, FIG. 2) was “reduces”. The “level of urine NGAL” value (relative to contrast agent alone, FIG. 3) was “reduces” and the “level of urine GST” value (relative to contrast agent alone, FIG. 5) was “reduces”.
